Literature values, collected in patent publication US20250144122A1, “Scent-Changing Ointment & Method of Making The Same” (priority 2023, published 2025).

What was measured:
[1] = in vivo
[2] = topical application, 3.5% gel

Row | SMILES | analgesic effect (pain threshold) [1] | blood flow remains reduced ([2]; at 10 minutes after application) | reduces blood flow ([2]; within 60 seconds of application)
1 | CC1CC[C@H](C(C)C)[C@@H](O)C1 (stereo partly shown) [(d)-menthol] | completely devoid of any analgesic effect |  | 
2 | CC(C)[C@@H]1CC[C@@H](C)C[C@H]1O [(l)-menthol] | able to increase pain threshold |  | 
3 | CC1CCC(C(C)C)C(O)C1 (stereo not shown) [menthol, Menthol] |  | 20% | 35%
